Experimental findings from US10800792B2, “Inhibitors of Bruton's tyrosine kinase and method of their use” (JANSSEN PHARMACEUTICA NV, priority 2015, dated 2020) are described below.

The first assay deals with unphosphorylated-BTK kinase domain (UP-BTK), GST-tagged human BTK (389-659aa) (Homo sapiens (Human), UniProt Q06187). The assay can be described thus: BTK kinase Lanthascreen binding assay. The settings on record: Lanthascreen tracer competition, 60 minutes incubation; pIC50 = negative log of the IC50 in molar. The essentials: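 Measures how well compounds compete with a fluorescence-labelled tracer for binding to BTK in its unphosphorylated state. IC50 values were fitted and expressed as pIC50 (negative logarithm of the molar IC50).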
Chain of unphosphorylated-BTK kinase domain (UP-BTK), GST-tagged human BTK (389-659aa) (Q06187 389-659): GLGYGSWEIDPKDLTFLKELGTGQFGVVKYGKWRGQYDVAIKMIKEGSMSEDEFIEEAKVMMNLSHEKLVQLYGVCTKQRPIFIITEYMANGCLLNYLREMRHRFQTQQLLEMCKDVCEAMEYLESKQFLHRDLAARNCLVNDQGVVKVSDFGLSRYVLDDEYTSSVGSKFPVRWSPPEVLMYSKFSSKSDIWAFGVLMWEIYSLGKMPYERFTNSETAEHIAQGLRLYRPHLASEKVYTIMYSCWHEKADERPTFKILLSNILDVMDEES
Take `COc1ccccc1Oc1ccc(N2C(=O)Nc3c(C(=O)NC4CCCN(C#N)C4)sc4nccc2c34)c(C)c1` (stereo not drawn) [Example 883, N-(1-Cyanopiperidin-3-yl)-5-(4-(2-methoxyphenoxy)-2-methylphenyl)-4-oxo-4,5-dihydro-3H-1-thia-3,5,8-triazaacenaphthylene-2-carboxamide]: the “BTK_I_binding pIC50” value is recorded as 7.0.
For `COc1ccccc1Oc1ccc(N2C(=O)Nc3c(C(=O)NC4CCN(C#N)CC4)sc4nccc2c34)c(C)c1` [Example 884, N-(1-Cyanopiperidin-4-yl)-5-(4-(2-methoxyphenoxy)-2-methylphenyl)-4-oxo-4,5-dihydro-3H-1-thia-3,5,8-triazaacenaphthylene-2-carboxamide], the “BTK_I_binding pIC50” value was determined as 7.0.
Same read-out and setting: the result for `Cc1cc(Oc2ccccc2)ccc1N1C(=O)Nc2c(C(=O)N[C@@H]3CCCN(C=O)C3)sc3nccc1c23` [Example 885, (R)—N-(1-Formylpiperidin-3-yl)-5-(2-methyl-4-phenoxyphenyl)-4-oxo-4,5-dihydro-3H-1-thia-3,5,8-triazaacenaphthylene-2-carboxamide] reads 7.0.
The same measure, in the same setting: the value for `Cc1ccccc1N1C(=O)Nc2c(C(=O)NC3CCCN(C(=O)/C(C#N)=C/C4CC4)C3)sc3nccc1c23` (stereo not drawn) [Example 886, (E)-N-(1-(2-Cyano-3-cyclopropylacryloyl)piperidin-3-yl)-4-oxo-5-(o-tolyl)-4,5-dihydro-3H-1-thia-3,5,8-triazaacenaphthylene-2-carboxamide] was 7.0; that for `Cc1cc(Oc2ccccc2)ccc1N1C(=O)Nc2c(C(=O)N[C@H]3CCCN(C#N)C3)sc3nccc1c23` [Example 887, (S)—N-(1-Cyanopiperidin-3-yl)-5-(2-methyl-4-phenoxyphenyl)-4-oxo-4,5-dihydro-3H-1-thia-3,5,8-triazaacenaphthylene-2-carboxamide] was 7.0.
On to `CC(=O)N1CC[C@@H](NC(=O)c2sc3nccc4c3c2NC(=O)N4c2ccc(Oc3ccccc3)cc2)C1` [Example 888, (R)—N-(1-Acetylpyrrolidin-3-yl)-4-oxo-5-(4-phenoxyphenyl)-4,5-dihydro-3H-1-thia-3,5,8-triazaacenaphthylene-2-carboxamide], for which the “BTK_I_binding pIC50” value amounted to 7.0.
On to `Cc1cc(Oc2ccccc2)ccc1N1C(=O)Nc2c(C(=O)NC3CCCNC3)sc3nccc1c23` (stereo not drawn) [Example 889, 5-(2-methyl-4-phenoxyphenyl)-4-oxo-N-(piperidin-3-yl)-4,5-dihydro-3H-1-thia-3,5,8-triazaacenaphthylene-2-carboxamide], for which the “BTK_I_binding pIC50” value is reported as 7.0.
Same read-out and setting: the value for `Cc1cc(Oc2ccccc2)ccc1N1C(=O)Nc2c(C(=O)NC3CCCN(C#N)C3)sc3nccc1c23` (stereo not drawn) [Example 890, N-(1-Cyanopiperidin-3-yl)-5-(2-methyl-4-phenoxyphenyl)-4-oxo-4,5-dihydro-3H-1-thia-3,5,8-triazaacenaphthylene-2-carboxamide] was 7.0; that for `CCC(=O)N1CCC[C@H](NC(=O)c2sc3nccc4c3c2NC(=O)N4c2ccc(Oc3ccccc3)cc2C)C1` [Example 891, (S)-5-(2-Methyl-4-phenoxyphenyl)-4-oxo-N-(1-propionylpiperidin-3-yl)-4,5-dihydro-3H-1-thia-3,5,8-triazaacenaphthylene-2-carboxamide] was 7.0; that for `Cc1cc(Oc2ccccc2)ccc1N1C(=O)Nc2c(C(=O)N[C@H]3CCCN(C(=O)CC#N)C3)sc3nccc1c23` [Example 892, (S)—N-(1-(2-Cyanoacetyl)piperidin-3-yl)-5-(2-methyl-4-phenoxyphenyl)-4-oxo-4,5-dihydro-3H-1-thia-3,5,8-triazaacenaphthylene-2-carboxamide] was 7.0.
Same read-out and setting: the value for `C=CC(=O)N1CCC[C@@H](NC(=O)c2sc3nccc4c3c2NC(=O)N4c2ccc(Oc3cccc(COc4ccccc4C#N)c3)cc2C)C1` [Example 894, (R)—N-(1-Acryloylpiperidin-3-yl)-5-(4-(3-((2-cyanophenoxy)methyl)phenoxy)-2-methylphenyl)-4-oxo-4,5-dihydro-3H-1-thia-3,5,8-triazaacenaphthylene-2-carboxamide] was 7.0.
For the compound `Cc1cc(C(=O)Nc2cc(C(F)(F)F)ccn2)ccc1N1C(=O)Nc2c(C(=O)N[C@H]3CCCN(C(=O)/C(C#N)=C/C4CC4)C3)sc3nccc1c23` [Example 895, (S,E)-N-(1-(2-Cyano-3-cyclopropylacryloyl)piperidin-3-yl)-5-(2-methyl-4-((4-(trifluoromethyl)pyridin-2-yl)carbamoyl)phenyl)-4-oxo-4,5-dihydro-3H-1-thia-3,5,8-triazaacenaphthylene-2-carboxamide], the “BTK_I_binding pIC50” value came to 7.0.
`COc1ccccc1Oc1ccc(N2C(=O)Nc3c(C(=O)NC4CCCN(C(=O)/C(C#N)=C/C(C)(C)C)C4)sc4nccc2c34)c(C)c1` (stereo not drawn) [Example 896, (E)-N-(1-(2-Cyano-4,4-dimethylpent-2-enoyl)piperidin-3-yl)-5-(4-(2-methoxyphenoxy)-2-methylphenyl)-4-oxo-4,5-dihydro-3H-1-thia-3,5,8-triazaacenaphthylene-2-carboxamide]: the “BTK_I_binding pIC50” value is listed as 6.9.
On the same count and under the same terms, the result for `Cc1cc(Oc2ccccc2)ccc1N1C(=O)Nc2c(C(=O)NC3CCCN(C(=O)/C(C#N)=C/C(C)(C)C)C3)sc3nccc1c23` (stereo not drawn) [Example 897, (E)-N-(1-(2-Cyano-4,4-dimethylpent-2-enoyl)piperidin-3-yl)-5-(2-methyl-4-phenoxyphenyl)-4-oxo-4,5-dihydro-3H-1-thia-3,5,8-triazaacenaphthylene-2-carboxamide] reads 6.8.
On the same count and under the same terms, the result for `Cc1cc(Oc2ccccc2)ccc1N1C(=O)Nc2c(C(=O)NC3CCCN(C)C3)sc3nccc1c23` (stereo not drawn) [Example 898, 5-(2-Methyl-4-phenoxyphenyl)-N-(1-methylpiperidin-3-yl)-4-oxo-4,5-dihydro-3H-1-thia-3,5,8-triazaacenaphthylene-2-carboxamide] reads 6.8; that for `Cc1cc(Oc2ccccc2)ccc1N1C(=O)Nc2c(C(=O)N[C@H]3CCCN(C(=O)/C(C#N)=C/C4CC4)C3)sc3nccc1c23` [Example 899, (S,E)-N-(1-(2-Cyano-3-cyclopropylacryloyl)piperidin-3-yl)-5-(2-methyl-4-phenoxyphenyl)-4-oxo-4,5-dihydro-3H-1-thia-3,5,8-triazaacenaphthylene-2-carboxamide], 6.8.
`Cc1cc(Oc2ccccc2)ccc1N1C(=O)Nc2c(C(=O)N[C@@H]3CCCN(C(=O)/C=C/CN4CCCCC4)C3)sc3nccc1c23` [Example 900, (R,E)-5-(2-Methyl-4-phenoxyphenyl)-4-oxo-N-(1-(4-(piperidin-1-yl)but-2-enoyl)piperidin-3-yl)-4,5-dihydro-3H-1-thia-3,5,8-triazaacenaphthylene-2-carboxamide]: the “BTK_I_binding pIC50” value worked out at 6.8.
In the case of `Cc1c(Oc2ccccc2)cccc1N1C(=O)Nc2c(C(=O)N[C@@H]3CCCN(C(=O)/C(C#N)=C/C4CC4)C3)sc3nccc1c23` [Example 901, (R,E)-N-(1-(2-Cyano-3-cyclopropylacryloyl)piperidin-3-yl)-5-(2-methyl-3-phenoxyphenyl)-4-oxo-4,5-dihydro-3H-1-thia-3,5,8-triazaacenaphthylene-2-carboxamide], the “BTK_I_binding pIC50” value came out at 6.8.

The assay is the same for the next values; noted with them: Lanthascreen tracer competition, 60 minutes incubation; pIC50 = negative log of the IC50 in molar; read-out: BTK_I_binding pIC50 (converted).
`Cc1cc(Oc2ccccc2)ccc1N1C(=O)Nc2c(C(=O)N[C@@H]3CCCN(C(=O)[C@@H]4CCCN4)C3)sc3nccc1c23` [Example 893, 5-(2-Methyl-4-phenoxyphenyl)-4-oxo-N—((R)-1-((S)-pyrrolidine-2-carbonyl)piperidin-3-yl)-4,5-dihydro-3H-1-thia-3,5,8-triazaacenaphthylene-2-carboxamide]: the IC50 was 100 nM.

Still in this assay, the particulars now being: unphosphorylated-BTK kinase domain, 60 minutes incubation, 50 nM Tracer 236; pIC50 = negative log of the IC50 in molar.
In the case of `N#C/C(=C\C1CC1)C(=O)N1CCC[C@H](NC(=O)c2sc3nccc4c3c2NC(=O)N4c2ccc(C(=O)Nc3cc(C(F)(F)F)ccn3)cc2F)C1` [Example 902, (S,E)-N-(1-(2-Cyano-3-cyclopropylacryloyl)piperidin-3-yl)-5-(2-fluoro-4-((4-(trifluoromethyl)pyridin-2-yl)carbamoyl)phenyl)-4-oxo-4,5-dihydro-3H-1-thia-3,5,8-triazaacenaphthylene-2-carboxamide], the “BTK_I_binding pIC50” value worked out at 6.8.
Turning to `CCC(=O)N1CCCC(NC(=O)c2sc3nccc4c3c2NC(=O)N4c2ccc(Oc3ccccc3)cc2C)C1` (stereo not drawn) [Example 903, 5-(2-Methyl-4-phenoxyphenyl)-4-oxo-N-(1-propionylpiperidin-3-yl)-4,5-dihydro-3H-1-thia-3,5,8-triazaacenaphthylene-2-carboxamide], the “BTK_I_binding pIC50” value turned out to be 6.8.
The same measure, in the same setting: the result for `Cc1cc(Oc2ccccc2)ccc1N1C(=O)Nc2c(C(=O)N[C@H]3CCCN(C(=O)/C(C#N)=C/C(C)(C)C)C3)sc3nccc1c23` [Example 904, (S,E)-N-(1-(2-Cyano-4,4-dimethylpent-2-enoyl)piperidin-3-yl)-5-(2-methyl-4-phenoxyphenyl)-4-oxo-4,5-dihydro-3H-1-thia-3,5,8-triazaacenaphthylene-2-carboxamide] reads 6.7.
On to `Cc1cc(Oc2ccccc2)ccc1N1C(=O)Nc2c(C(=O)N[C@H]3CCN(C(=O)/C(C#N)=C/C4CC4)C3)sc3nccc1c23` [Example 905, (S,E)-N-(1-(2-Cyano-3-cyclopropylacryloyl)pyrrolidin-3-yl)-5-(2-methyl-4-phenoxyphenyl)-4-oxo-4,5-dihydro-3H-1-thia-3,5,8-triazaacenaphthylene-2-carboxamide], for which the “BTK_I_binding pIC50” value amounted to 6.7.
With `COc1ccccc1Oc1ccc(N2C(=O)Nc3c(C(=O)NC4CCCN(C)C4)sc4nccc2c34)c(C)c1` (stereo not drawn) [Example 907, 5-(4-(2-Methoxyphenoxy)-2-methylphenyl)-N-(1-methylpiperidin-3-yl)-4-oxo-4,5-dihydro-3H-1-thia-3,5,8-triazaacenaphthylene-2-carboxamide], the “BTK_I_binding pIC50” value was 6.7.
